pIC50: −log10 of the molar value.
Legend:
[1] = biological target: cap-dependent endonuclease (RNP fraction containing PB1•PB2•PA complex) (Influenza A virus, UniProt P15659); assay: Measurement of cap-dependent endonuclease (CEN) inhibitory activity; format: biochemical; conditions: RNP enzyme from A/WSN/33 virus, capped Cy3/BHQ2-labelled 30mer RNA substrate, room temperature 60 minutes
influenza virus = assay: CPE inhibitory effect confirming assay; format: cell-based; conditions: unidentified influenza virus, 72 h, read-out: CPE IC50

| SMILES | pIC50 [1] | pIC50 (influenza virus) |
| --- | --- | --- |
| CCOC(=O)CCN1CN(C(c2ccccc2)c2ccccc2)n2ccc(=O)c(O)c2C1=O [Compound 128] | 7.20 | 6.38 |
| CN1C(=O)c2c(O)c(=O)c(C(=O)O)cn2C[C@H]1C(c1ccccc1)c1ccccc1 [Compound 43] | 7.11 | 5.85 |
| O=C(O)c1cn2c(c(O)c1=O)C(=O)N1CCCO[C@H]1[C@@H]2C(c1ccccc1)c1ccccc1 [Compound 175] | 6.88 | 6.99 |
